Active and inactive are the calls of the source.
Tests used:
HEK293 [1] = assay: Fluorescence-based counterscreen for potentiators or agonists of NPY-Y1: cell-based high-throughput dose response assay for inhibitors of cyclic nucleotide gated ion channel (CNGC) activity. In this assay, the parental HEK293 cell line transfected with a cyclic-nucleotide gated ion channel (CNGC)-based cAMP sensor is used to measure inhibition of isoproterenol-induced CNGC …; assay type: functional; conditions: Homo sapiens
[2] = target: Neuropeptide Y receptor type 2 (Homo sapiens, UniProt P49146); assay: Fluorescence-based counterscreen for agonists of NPY-Y1: cell-based high-throughput dose response assay for agonists of NPY-Y2.; assay type: functional
[3] = target: T1, Long-chain-fatty-acid--AMP ligase FadD28 (Mycobacterium tuberculosis, UniProt P9WQ59); assay: Fluorescence polarization aasay to screen for inhibitors that compete for the binding of FadD28 to a bisubstrate Measured in Biochemical System Using Plate Reader - 2147-01_Inhibitor_Dose_CherryPick_Activity.; assay type: functional, Mycobacterium tuberculosis H37Rv
T1 sequence (P9WQ59 whole entry): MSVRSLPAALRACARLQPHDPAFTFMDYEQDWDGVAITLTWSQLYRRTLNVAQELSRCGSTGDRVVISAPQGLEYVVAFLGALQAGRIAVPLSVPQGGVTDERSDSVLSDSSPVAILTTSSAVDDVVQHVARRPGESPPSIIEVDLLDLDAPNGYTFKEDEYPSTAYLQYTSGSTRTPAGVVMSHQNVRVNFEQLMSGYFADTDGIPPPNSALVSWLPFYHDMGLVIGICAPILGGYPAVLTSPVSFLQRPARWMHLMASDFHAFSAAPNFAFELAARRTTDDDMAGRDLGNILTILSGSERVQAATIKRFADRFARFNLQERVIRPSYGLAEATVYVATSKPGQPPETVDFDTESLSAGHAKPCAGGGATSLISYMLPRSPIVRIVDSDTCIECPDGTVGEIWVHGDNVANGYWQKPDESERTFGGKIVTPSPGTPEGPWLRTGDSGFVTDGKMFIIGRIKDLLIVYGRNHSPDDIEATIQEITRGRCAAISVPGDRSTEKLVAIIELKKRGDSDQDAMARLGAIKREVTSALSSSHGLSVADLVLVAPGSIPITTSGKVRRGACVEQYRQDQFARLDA

[4] = target: Neuropeptide Y receptor type 1 (Homo sapiens, UniProt P25929); assay: Fluorescence-based dose response cell-based high-throughput screening assay for agonists of NPY-Y1. [Related pubchem assays: 1697 (Screening assay (NPY-Y1 agonists).), 1359 (Screening assay (NPY-Y2 potentiators or agonists).), 1304 (Screening assay (NPY-Y1 potentiators or agonists).), 1704 (Screening assay (CNGC inhibitors).), 1791 (Summary AID.)]; assay type: functional
[5] = viability loss in HepG2 hepatoma cells – cell-based, ATP luminescence, cherry-pick, activator set 2, cytotoxicity control, dose response (AID 1053143); assay type: functional
Vero [6] = assay: cells; assay type: functional; conditions: Chlorocebus sabaeus
Vero [7] = assay: cells; assay type: functional, cell-based; conditions: Chlorocebus sabaeus
Interleukin-8 = Interleukin-8 (Homo sapiens, UniProt P10145); assay: SAR analysis of tumor necrosis factor alpha (TNF-alpha) induced IL-8 secretion in MCF-7/NOD1 cells. [Related pubchem assays (depositor defined):AID1575, AID2250, AID2260]; assay type: functional, cell-based
[8] = target: Neurotensin receptor type 1 (Homo sapiens, UniProt P30989); assay type: functional;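 further: Image-based confirmatory dose-response assay measuring agonist activity at NTR1; NTR1-expressing U2OS osteosarcoma cells imaged for beta-arrestin GFP spot formation; agonist potency where compounds increase beta-arrestin recruitment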
[9] = target: T2, Microphthalmia-associated transcription factor (Homo sapiens, UniProt O75030); assay: reducers of TRPM1 reporter luminescence, concentration series – cell-based, SK-MEL-5, cherry-picked, set 3, MITF inhibitor project, dose response (AID 493073); assay type: functional;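 further: SK-MEL-5 melanoma cells with luciferase driven by the MITF target TRPM1 promoter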
T2 sequence (O75030 whole entry): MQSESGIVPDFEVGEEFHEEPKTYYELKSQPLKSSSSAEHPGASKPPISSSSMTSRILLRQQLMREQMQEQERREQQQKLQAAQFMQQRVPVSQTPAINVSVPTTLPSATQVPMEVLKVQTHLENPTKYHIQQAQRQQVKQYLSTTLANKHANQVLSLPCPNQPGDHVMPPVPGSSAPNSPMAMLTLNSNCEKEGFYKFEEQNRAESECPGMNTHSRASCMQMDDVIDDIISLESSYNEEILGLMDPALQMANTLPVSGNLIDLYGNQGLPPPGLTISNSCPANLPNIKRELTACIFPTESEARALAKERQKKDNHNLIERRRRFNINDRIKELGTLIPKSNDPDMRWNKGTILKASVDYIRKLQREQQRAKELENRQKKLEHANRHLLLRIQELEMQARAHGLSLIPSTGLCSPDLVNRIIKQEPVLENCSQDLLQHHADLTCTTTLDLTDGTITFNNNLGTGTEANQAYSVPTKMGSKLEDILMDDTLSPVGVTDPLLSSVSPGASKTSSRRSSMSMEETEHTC

[10] = target: T3, Eukaryotic translation initiation factor 2-alpha kinase 3 (Homo sapiens, UniProt Q9NZJ5); assay: Counterscreen assay for PERK inhibitors: Dose response cell-based high throughput screening assay to measure inhibition of PERK at 6 hours. [Related pubchem assays: 1522, 1416 ]; assay type: functional
[11] = target: T3, Eukaryotic translation initiation factor 2-alpha kinase 3; assay: Dose response cell-based high-throughput screening assay to measure PERK inhibition. [Related pubchem assays: 1416 ]; assay type: functional
HEK293 [12] = assay: EBV LMP1 TES2 canonical NF-kB signalling blockers – cell-based, HEK293, luciferase, cherry-pick, dose response (AID 588343); assay type: functional; conditions: Homo sapiens
[13] = Luminescence Cell-Based Dose Confirmation HTS to Identify Inhibitors of Platelet Dense Granule Release. [Related pubchem assays: 1663 (Primary HTS), 1678 (Summary of Project)]; assay type: functional
cells = assay type: functional
[14] = alpha-synuclein stem-loop luciferase translation blockers – H4 neuroglioma cells, luminescence, confirmation (AID 1988); assay type: functional, cell-based
[15] = luciferase reporter signal suppression in cells – H4 neuroglioma cells, luminescence, dose response (AID 1990); assay type: functional, cell-based
[16] = Luminescence Cell-Based Dose Response HTS to Identify Inhibitors of 5'UTR Stem-Loop Driven Prion Protein mRNA Translation in H4 Neuroglioblastoma Cells. [Related pubchem assays: 1827 (Project Summary), 1813 (Primary HTS)]; assay type: functional
[17] = target: Luciferin 4-monooxygenase (Photinus pyralis, UniProt P08659); assay: inhibition of purified Photinus pyralis luciferase – biochemical, luminescence, dose response (AID 1891)
[18] = ADP-Glo luciferase signal interference – biochemical, luminescence, cherry-picked samples, set 2, artefact control for CDK5 inhibitor project, dose response (AID 504546); assay type: functional, cell-based
[19] = target: Cyclin-dependent kinase 5/CDK5 activator 1 (Homo sapiens, UniProt Q00535); assay: blockade of human CDK5 activity – biochemical, cherry-picked samples, set 2, dose response (AID 504545)
Chain of Cyclin-dependent kinase 5/CDK5 activator 1 (Q00535 whole entry): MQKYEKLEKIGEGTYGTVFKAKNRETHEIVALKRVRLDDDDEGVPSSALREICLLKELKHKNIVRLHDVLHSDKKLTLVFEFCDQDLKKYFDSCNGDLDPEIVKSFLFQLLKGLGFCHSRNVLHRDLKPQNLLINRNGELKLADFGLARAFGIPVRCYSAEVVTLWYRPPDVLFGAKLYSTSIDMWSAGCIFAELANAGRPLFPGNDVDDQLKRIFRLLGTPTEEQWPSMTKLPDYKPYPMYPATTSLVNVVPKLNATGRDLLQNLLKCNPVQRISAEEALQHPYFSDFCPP
Chain of Cyclin-dependent kinase 5/CDK5 activator 1 (Q15078 whole entry, further chain): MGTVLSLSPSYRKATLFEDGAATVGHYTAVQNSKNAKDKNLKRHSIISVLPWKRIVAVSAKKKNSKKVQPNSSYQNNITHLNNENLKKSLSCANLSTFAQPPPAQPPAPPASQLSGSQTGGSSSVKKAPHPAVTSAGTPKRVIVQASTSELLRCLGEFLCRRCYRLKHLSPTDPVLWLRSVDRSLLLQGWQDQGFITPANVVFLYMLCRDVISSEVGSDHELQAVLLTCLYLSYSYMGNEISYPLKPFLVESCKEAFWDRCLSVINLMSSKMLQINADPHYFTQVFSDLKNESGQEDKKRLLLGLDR

T3 sequence (Q9NZJ5 whole entry): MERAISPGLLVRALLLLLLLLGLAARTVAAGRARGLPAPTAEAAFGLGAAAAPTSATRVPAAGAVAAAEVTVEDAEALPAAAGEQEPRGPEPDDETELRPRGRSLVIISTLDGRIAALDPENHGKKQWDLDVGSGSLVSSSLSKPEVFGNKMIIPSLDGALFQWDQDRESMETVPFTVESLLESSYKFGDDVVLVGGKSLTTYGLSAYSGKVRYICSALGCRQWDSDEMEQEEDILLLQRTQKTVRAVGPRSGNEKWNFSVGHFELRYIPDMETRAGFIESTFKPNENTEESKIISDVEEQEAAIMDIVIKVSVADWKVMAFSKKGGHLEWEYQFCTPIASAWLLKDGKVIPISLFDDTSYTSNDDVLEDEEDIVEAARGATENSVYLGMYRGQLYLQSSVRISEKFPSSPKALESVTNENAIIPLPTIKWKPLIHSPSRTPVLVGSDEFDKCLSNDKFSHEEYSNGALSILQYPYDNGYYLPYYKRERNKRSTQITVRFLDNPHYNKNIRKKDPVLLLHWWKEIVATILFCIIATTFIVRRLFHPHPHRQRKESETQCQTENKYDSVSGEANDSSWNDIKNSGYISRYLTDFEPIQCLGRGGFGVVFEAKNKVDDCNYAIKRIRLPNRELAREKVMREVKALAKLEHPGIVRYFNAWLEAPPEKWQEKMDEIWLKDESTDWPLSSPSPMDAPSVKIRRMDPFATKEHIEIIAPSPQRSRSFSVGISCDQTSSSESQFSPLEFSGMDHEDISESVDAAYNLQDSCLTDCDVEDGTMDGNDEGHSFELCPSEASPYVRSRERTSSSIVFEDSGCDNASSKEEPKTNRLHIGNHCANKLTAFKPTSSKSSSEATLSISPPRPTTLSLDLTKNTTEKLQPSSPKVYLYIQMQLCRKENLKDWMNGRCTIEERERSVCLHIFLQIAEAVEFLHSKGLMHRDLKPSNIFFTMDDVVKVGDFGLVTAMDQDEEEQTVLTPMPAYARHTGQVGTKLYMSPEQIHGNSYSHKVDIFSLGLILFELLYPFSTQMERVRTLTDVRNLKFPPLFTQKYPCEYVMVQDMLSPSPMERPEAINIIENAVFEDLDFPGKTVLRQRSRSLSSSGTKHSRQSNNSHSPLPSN
Chain of Neurotensin receptor type 1 (P30989 whole entry): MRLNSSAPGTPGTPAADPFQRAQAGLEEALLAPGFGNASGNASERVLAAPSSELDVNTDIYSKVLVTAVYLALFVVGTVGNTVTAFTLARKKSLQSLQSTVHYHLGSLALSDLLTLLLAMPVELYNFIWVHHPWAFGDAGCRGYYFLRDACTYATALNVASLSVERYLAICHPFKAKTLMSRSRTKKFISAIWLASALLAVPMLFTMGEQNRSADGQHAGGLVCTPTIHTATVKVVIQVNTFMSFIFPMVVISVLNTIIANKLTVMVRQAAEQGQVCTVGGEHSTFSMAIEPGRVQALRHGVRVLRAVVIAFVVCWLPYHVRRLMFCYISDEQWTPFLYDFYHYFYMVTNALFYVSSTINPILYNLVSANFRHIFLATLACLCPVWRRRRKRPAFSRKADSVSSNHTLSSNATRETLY
Chain of Neuropeptide Y receptor type 1 (P25929 whole entry): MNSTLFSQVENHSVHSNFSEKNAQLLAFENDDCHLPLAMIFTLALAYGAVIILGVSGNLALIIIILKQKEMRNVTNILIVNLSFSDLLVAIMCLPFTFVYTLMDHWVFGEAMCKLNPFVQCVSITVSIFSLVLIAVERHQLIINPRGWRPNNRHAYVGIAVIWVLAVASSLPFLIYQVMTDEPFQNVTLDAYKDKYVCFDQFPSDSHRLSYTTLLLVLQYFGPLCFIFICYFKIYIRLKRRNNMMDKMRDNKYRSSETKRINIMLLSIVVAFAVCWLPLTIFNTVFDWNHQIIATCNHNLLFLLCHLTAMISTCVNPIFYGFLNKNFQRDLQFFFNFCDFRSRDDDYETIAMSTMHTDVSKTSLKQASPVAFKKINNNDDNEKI
Chain of Interleukin-8 (P10145 whole entry): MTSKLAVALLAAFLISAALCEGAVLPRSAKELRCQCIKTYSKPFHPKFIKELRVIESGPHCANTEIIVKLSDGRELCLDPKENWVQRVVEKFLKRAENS
Chain of Luciferin 4-monooxygenase (P08659 whole entry): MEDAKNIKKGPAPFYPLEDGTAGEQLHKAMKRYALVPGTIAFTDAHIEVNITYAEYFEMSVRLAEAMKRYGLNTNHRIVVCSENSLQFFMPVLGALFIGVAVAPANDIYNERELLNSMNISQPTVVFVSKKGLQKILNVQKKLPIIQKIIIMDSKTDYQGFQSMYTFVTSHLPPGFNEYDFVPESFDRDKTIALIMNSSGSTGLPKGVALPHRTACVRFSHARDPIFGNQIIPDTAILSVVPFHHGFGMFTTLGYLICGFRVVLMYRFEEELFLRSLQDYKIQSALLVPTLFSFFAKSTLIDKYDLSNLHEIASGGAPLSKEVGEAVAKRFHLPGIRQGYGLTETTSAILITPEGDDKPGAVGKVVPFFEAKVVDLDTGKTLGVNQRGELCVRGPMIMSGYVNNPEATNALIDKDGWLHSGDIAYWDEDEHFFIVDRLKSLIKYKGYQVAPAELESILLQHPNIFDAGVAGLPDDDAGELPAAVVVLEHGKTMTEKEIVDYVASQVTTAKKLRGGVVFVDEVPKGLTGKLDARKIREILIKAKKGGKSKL
Chain of Neuropeptide Y receptor type 2 (P49146 whole entry): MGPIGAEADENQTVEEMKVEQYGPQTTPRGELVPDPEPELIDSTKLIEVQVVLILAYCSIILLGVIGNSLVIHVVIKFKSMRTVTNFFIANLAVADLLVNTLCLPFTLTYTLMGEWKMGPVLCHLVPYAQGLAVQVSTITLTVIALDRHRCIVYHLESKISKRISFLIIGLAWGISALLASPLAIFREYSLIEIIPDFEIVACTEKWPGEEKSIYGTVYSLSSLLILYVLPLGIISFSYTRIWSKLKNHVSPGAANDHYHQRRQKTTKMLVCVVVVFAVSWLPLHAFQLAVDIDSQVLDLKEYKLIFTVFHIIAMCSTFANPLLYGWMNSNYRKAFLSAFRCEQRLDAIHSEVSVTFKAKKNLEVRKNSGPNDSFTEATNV

## Cn1cc([N+](=O)[O-])c(C(=O)Nc2ccc(C3CCCCC3)cc2)n1
HEK293 [1]
  IC50: 8.17 µM (active)
[2]
  EC50: 12.1 µM (not active)
[3]
  AC50: > 100 µM (inactive)
[4]
  EC50: 9.71 µM (active)
[5]
  AC50: 18.5 µM (active)
Vero [6]
  CC50: > 25 µM (active)
Vero [7]
  IC50: 9.92 µM (active)

## COc1ccc(S(=O)(=O)n2c(N)nc3ccccc32)cc1
Interleukin-8
  IC50: > 5 µM (inactive)

## Cc1cccc(N2C(=O)NC(=O)/C(=C\c3cccn3-c3ccc(Cl)cc3)C2=O)c1
[8]
  EC50: 9.06 µM (active)
[9]
  AC50: 8.91 µM (active)
Vero [6]
  CC50: 23.4 µM (active)

## C=CCNC(=O)Nc1ccc(F)cc1F
[10]
  EC50: > 55.7 µM (not active)
[11]
  EC50: > 55.7 µM (not active)

## CCOc1ccc(OCC(=O)Nc2nccs2)cc1
HEK293 [12]
  AC50: 2.74 µM (active)
[13]
  EC50: 2.37 µM (active)
cells
  IC50: 20.2 µM (active)
[14]
  EC50: 6.85 µM (active)
[15]
  EC50: 8.12 µM (active)
[16]
  EC50: 9.78 µM (active)
[17]
  EC50: 5.61 µM (active)
[18]
  AC50: 31.3 µM (active)
[19]
  AC50: 21.2 µM (active)

From ChEMBL document CHEMBL1201862, “PubChem BioAssay data set” (2004)
